Measurements reported in patent publication US4840947A, “Antiinflammatory and analgesic piperidin-4-yl-tetracyclic benzodiazepines and use thereas” (Hoechst-Roussel Pharmaceuticals, Inc., priority 1986, dated 1989).
Where two headings read alike, the source gives them in different places.

Legend:
[1] = test system: 2-phenyl-1,4-benzoquinone induced writhing in mice; assay: Phenylquinone Induced Writhing in Mice (2-phenyl-1,4-benzoquinone, analgesia); type: in vivo, mouse; details: for Percent Inhibition of phenylquinone induced writhing: at 20 mg/kg; for ED50: Mus musculus, sc, read-out: ED50, inhibition of phenylquinone induced writhing
[2] = test system: carrageenan-induced rat paw edema; assay: Inhibition of Carrageenan-Induced Rat Paw Edema; type: in vivo; details: for ED50: po; for Percent Inhibition of carrageenan-induced rat paw edema: at 100 mg/kg, p.o.
[3] = test system: adjuvant-induced polyarthritis in rats; assay: Adjuvant-Induced Polyarthritis In Rats; type: in vivo, rat (male Charles River-Wistar Lewis); details: rat, p.o.; for ED50: po; for percent inhibition of paw volume, adjuvant-treated paw / percent inhibition of paw volume, non-injected paw: at 50 mg/kg
Description: This activity was measured by a procedure similar to that described by C.
Groups of 10 male Charles River-Wistar Lewis rats weighing 150 to 175 g were individually housed and maintained on a regular rat chow diet. Water was given ad libitum. The adjuvant was prepared by suspending 75 mg of Mycobacterium butyricum (Difco Laboratories, Detroit, Mich.) in 10 ml of white paraffin oil with continuous stirring for 2 hours at room temperature prior to administration. Test compounds are prepared by suspending the drug in water, adding one drop of Tween 80 per 10 ml of suspension, and homogenizing. The adjuvant suspension (0.1 ml) was injected into the footpad of the left hind paw of the rat. Test compound suspensions were administered orally (10 ml/kg) the day before adjuvant suspension injection and the administration was continued for 21 days. One group of ten rats was used for the test drug. Standard, adjuvant-injected control and non-injected control groups are run along with the test drug. Control animals received vehicle (10 ml/kg). Three doses of test drug and one dose of standard preparation were used. Injected and non-injected paw volumes were determined on the day the adjuvant suspension was given, and on subsequent days thereafter (usually days 5, 10, 18, and 21) by the method of C. A. Winter, et al., Proc. Soc.
The percent inhibition of paw volume (injected and non-injected hind paw) was calculated by the following formula: [formula]

[4] = adjuvant-treated (injected) paw, read-out: ED50 (50% inhibition of paw volume), adjuvant-treated paw
[5] = non-injected paw, read-out: ED50 (50% inhibition of paw volume), non-injected paw
[6] = adjuvant-treated (injected) paw

`CCO.CN1CCC(C2Nc3ccccc3N3CCc4cc(Br)cc2c43)CC1` (stereo not shown) [4-Bromo-6-(1-methylpiperidin-4-yl)-1,2,6,7-tetrahydrobenzo[b]pyrrolo[3,2,1-jk][1,4]benzodiazepine ethanolate] was tested, and the “Percent Inhibition of phenylquinone induced writhing” value ([1]; mice, s.c.) was 47%.
With `CCO.CN1CCC(C2Nc3ccccc3N3CCc4cccc2c43)CC1.O=C(O)/C=C/C(=O)O` (stereo not shown) [6-(1-Methylpiperidin-4-yl)-1,2,6,7-tetrahydrobenzo[b]pyrrolo[3,2,1-jk][1,4]benzodiazepine fumarate ethanolate] the ED50 [2] was 41.5 mg/kg, the “Percent Inhibition of phenylquinone induced writhing” value ([1]; mice, s.c.) was 51% and the ED50 [3, 4] was 73.6 mg/kg. The ED50 [3, 5] was 18.5 mg/kg.
For `CN1CCC(C2c3cccc4c3N(CC4)c3ccccc3N2C(=O)OCC(Cl)(Cl)Cl)CC1` (stereo not shown) [6-(1-Methylpiperidin-4-yl)-1,2,6,7-tetrahydrobenzo[b]pyrrolo[3,2,1-jk][1,4]benzodiazepine-7-carboxylic acid, 2,2,2-trichloroethyl ester], the “Percent Inhibition of carrageenan-induced rat paw edema” value [2] was 44%.
In the case of `CN1CCC(C2Nc3ccccc3N3CCCc4cccc2c43)CC1` (stereo not shown) [7-(1-Methyl-4-piperidinyl)-2,3,7,8-tetrahydro-1H-quino[1,8-ab][1,5]benzodiazepine hemifumarate hemihydrate], the “Percent Inhibition of carrageenan-induced rat paw edema” value [2] is reported as 21%, the “Percent Inhibition of phenylquinone induced writhing” value ([1]; mice, s.c.) is reported as 27% and the “percent inhibition of paw volume, adjuvant-treated paw” value [3, 6] is reported as 39%. The “percent inhibition of paw volume, non-injected paw” value ([3]; non-injected paw) was 79%.
`CN1CCC(C2c3cccc4c3N(CC4)c3ccccc3N2C=O)CC1.O=CO` (stereo not shown) [7-Formyl-6-(1-methylpiperidin-4-yl)-1,2,6,7-tetrahydrobenzo[b]pyrrolo[3,2,1-jk][1,4]benzodiazepine formate] was tested, and the ED50 ([1]; mice, s.c.) was 0.9 mg/kg.
For `CN1CCC(C2c3cccc4c3N(CC4)c3ccccc3N2C)CC1` (stereo not shown) [7-Methyl-6-(1-methylpiperidin-4-yl)-1,2,6,7-tetrahydrobenzo[b]pyrrolo[3,2,1-jk][1,4]benzodiazepine], the ED50 ([1]; mice, s.c.) was 2.6 mg/kg.
With `CN1CCC(C2Nc3cc(Br)ccc3N3CCc4cccc2c43)CC1` (stereo not shown) [9-Bromo-6-(1-methylpiperidin-4-yl)-1,2,6,7-tetrahydrobenzo[b]pyrrolo[3,2,1-jk][1,4]benzodiazepine] the “Percent Inhibition of carrageenan-induced rat paw edema” value [2] was 40%, the ED50 [3, 4] was 112 mg/kg and the ED50 [3, 5] was 3.6 mg/kg.
`CN1CCC(C2Nc3cc(F)ccc3N3CCc4cccc2c43)CC1` (stereo not shown) [9-Fluoro-6-(1-methylpiperidin-4-yl)-1,2,6,7-tetrahydrobenzo[b]pyrrolo[3,2,1-jk][1,4]benzodiazepine] was tested, and the “Percent Inhibition of phenylquinone induced writhing” value ([1]; mice, s.c.) was 35%, the “percent inhibition of paw volume, adjuvant-treated paw” value [3, 6] was 48% and the “percent inhibition of paw volume, non-injected paw” value ([3]; non-injected paw) was 116%.
With `CCCCC1C(=O)N(c2ccccc2)N(c2ccccc2)C1=O` [Phenylbutazone, reference compound] the ED50 [2] was 50 mg/kg, the ED50 [3, 4] was 14 mg/kg and the ED50 [3, 5] was 9.4 mg/kg.
Work on `CCC(=O)O[C@](Cc1ccccc1)(c1ccccc1)[C@H](C)CN(C)C` [Propoxyphene, reference compound] yielded an ED50 [1] of 3.9 mg/kg.
